The inhibition is the share of the control response that was lost under treatment. As usually defined, the pIC50 is the negative decadic logarithm of the IC50, by convention in mol/L.

Experimental findings from ChEMBL document CHEMBL3414572, “Identification of fused 16β,17β-oxazinone-estradiol derivatives as a new family of non-estrogenic 17β-hydroxysteroid dehydrogenase type 1 inhibitors” (Eur J Med Chem, 2015) are described below.

Experiment [1] has as its target T1, 17-beta-hydroxysteroid dehydrogenase type 1 (Homo sapiens) (UniProt P14061).
T1 sequence (whole entry): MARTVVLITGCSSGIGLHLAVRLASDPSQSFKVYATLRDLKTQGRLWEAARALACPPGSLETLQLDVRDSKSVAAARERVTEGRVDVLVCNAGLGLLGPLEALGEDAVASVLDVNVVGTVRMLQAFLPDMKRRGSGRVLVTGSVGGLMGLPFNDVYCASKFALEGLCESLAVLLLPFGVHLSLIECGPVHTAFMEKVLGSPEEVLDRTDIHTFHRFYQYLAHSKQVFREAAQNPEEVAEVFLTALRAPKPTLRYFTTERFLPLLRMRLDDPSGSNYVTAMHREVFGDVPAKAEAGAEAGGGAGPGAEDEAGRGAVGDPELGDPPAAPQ
The experiment in a line: Inhibition of 17 beta-HSD1 in human T47D cells assessed as inhibition of transformation of [14C]E1 to [14C]E2 at 10 uM after overnight incubation. In kind it is cell-based.

Experiment [2] has as its system T47D. The experiment in a line: Estrogenic activity in human T47D cells assessed as cell proliferation at 0.5 uM incubated for 7 days with replacement of media in every 2 days by CellTitre-Glo assay. In kind it is functional.
Experiment [3] addresses T2, 17-beta-hydroxysteroid dehydrogenase type 2 (Homo sapiens) (UniProt P37059).
T2 sequence (whole entry): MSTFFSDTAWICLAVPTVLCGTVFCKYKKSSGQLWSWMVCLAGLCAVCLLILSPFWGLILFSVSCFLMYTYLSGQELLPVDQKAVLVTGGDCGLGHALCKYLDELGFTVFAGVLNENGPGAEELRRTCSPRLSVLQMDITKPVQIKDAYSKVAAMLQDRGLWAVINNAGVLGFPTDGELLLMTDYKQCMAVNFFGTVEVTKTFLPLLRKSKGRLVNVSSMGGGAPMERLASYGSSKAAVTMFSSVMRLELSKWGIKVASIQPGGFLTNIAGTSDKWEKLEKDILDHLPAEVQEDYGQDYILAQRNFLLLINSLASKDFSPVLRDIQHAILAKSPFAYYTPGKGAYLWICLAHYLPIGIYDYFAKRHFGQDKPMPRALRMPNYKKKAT
The experiment in a line: Inhibition of 17 beta-HSD2 (unknown origin) transfected in HEK293 cells using [14C]E2 as substrate at 10 uM. Format: cell-based.

Experiment [4] deals with T2, 17-beta-hydroxysteroid dehydrogenase type 2 (Homo sapiens). The experiment in a line: Inhibition of 17 beta-HSD2 (unknown origin) transfected in HEK293 cells using [14C]E2 as substrate at 1 uM. Format: cell-based.
Experiment [5] addresses T3, Very-long-chain 3-oxoacyl-CoA reductase (Homo sapiens) (UniProt Q53GQ0).
T3 sequence (whole entry): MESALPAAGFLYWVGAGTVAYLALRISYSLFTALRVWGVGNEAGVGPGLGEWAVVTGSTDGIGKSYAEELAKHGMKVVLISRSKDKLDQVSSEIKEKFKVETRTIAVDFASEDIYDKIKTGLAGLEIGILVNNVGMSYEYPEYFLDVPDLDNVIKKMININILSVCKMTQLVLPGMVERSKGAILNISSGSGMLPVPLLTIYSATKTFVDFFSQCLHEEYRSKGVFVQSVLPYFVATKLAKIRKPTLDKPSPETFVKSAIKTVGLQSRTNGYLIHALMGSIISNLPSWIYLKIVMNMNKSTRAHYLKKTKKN
The experiment in a line: Inhibition of 17 beta-HSD12 (unknown origin) at 10 uM.

For experiment [6], the target named is T4, 17-beta-hydroxysteroid dehydrogenase type 1 (Homo sapiens, UniProt P14061).
T4 sequence (P14061 whole entry): T1 sequence (whole entry)
The experiment in a line: Inhibition of 17 beta-HSD1 in human T47D cells assessed as inhibition of transformation of [14C]E1 to [14C]E2 after overnight incubation. In kind it is cell-based.

Experiment [7] relates to T47D. The experiment in a line: Estrogenic activity in human T47D cells assessed as cell proliferation at 0.1 uM incubated for 7 days with replacement of media in every 2 days by CellTitre-Glo assay. Format: functional.

pIC50: −log10 of the molar value. Calls of active or inactive are those of the source. The calls are words filed in the database; no cut-off is given here.

In the case of `CCCCCCCCN1C(=O)O[C@@H]2[C@@]3(C)CC[C@@H]4c5ccc(O)cc5CC[C@H]4[C@@H]3C[C@]2(O)[C@@H]1c1cccc(C(N)=O)c1`, the inhibition result in experiment [1] was “Active”.

Consider `CCCCN1C(=O)O[C@H]2C(=C[C@H]3[C@@H]4CCc5cc(O)ccc5[C@H]4CC[C@]23C)[C@@H]1c1cccc(C(N)=O)c1`, for which the outcome in the experiment with T47D [2] and in the experiment with T47D [7] was inactive. The inhibition amounted to 15% in experiment [3] and 10% in experiment [4]. For the same molecule, the inhibition result in experiment [1] is “Active”. In addition, in experiment [5], the inhibition entry was “inactive”. In experiment [6], the negative-log IC50 (pIC50) is 5.85.

As to `CCN1C(=O)O[C@@H]2[C@@]3(C)CC[C@@H]4c5ccc(O)cc5CC[C@H]4[C@@H]3C[C@]2(O)[C@@H]1c1cccc(C(N)=O)c1`, the inhibition entry in experiment [1] was “Active”.

`CCN1C(=O)O[C@H]2C(=C[C@H]3[C@@H]4CCc5cc(O)ccc5[C@H]4CC[C@]23C)[C@@H]1c1cccc(C(N)=O)c1`: the inhibition entry in experiment [1] was “Active”.

Regarding `C[C@]12CC[C@@H]3c4ccc(O)cc4CC[C@H]3[C@@H]1CC[C@@H]2O` [ESTRADIOL], the growth at 0.5 µM in the experiment with T47D [2] (read-out: Activity) is 380%. Also, the growth at 0.1 µM in the experiment on T47D [7] (read-out: Activity) worked out at 320%.

Turning to `CCCCCCCCN1C(=O)O[C@H]2C(=C[C@H]3[C@@H]4CCc5cc(O)ccc5[C@H]4CC[C@]23C)[C@@H]1c1cccc(C(N)=O)c1`, the inhibition entry in experiment [1] was “Active”.

Regarding `CCCCN1C(=O)O[C@@H]2[C@@]3(C)CC[C@@H]4c5ccc(O)cc5CC[C@H]4[C@@H]3C[C@]2(O)[C@@H]1c1cccc(C(N)=O)c1`, the inhibition result in experiment [1] is “Active”.

Turning to `CCCCCCN1C(=O)O[C@@H]2[C@@]3(C)CC[C@@H]4c5ccc(O)cc5CC[C@H]4[C@@H]3C[C@]2(O)[C@@H]1c1cccc(C(N)=O)c1`, the outcome in the experiment with T47D [2] was Active. Besides, the inhibition entry in experiment [1] was “Active”. Also, the pIC50 in experiment [6] was 5.18.

As to `CCCCCCN1C(=O)O[C@H]2C(=C[C@H]3[C@@H]4CCc5cc(O)ccc5[C@H]4CC[C@]23C)[C@@H]1c1cccc(C(N)=O)c1`, the inhibition result in experiment [1] was “Active”.
